Experimental findings from patent publication US20260226026A1, “COMPOUND AS CTPS1 INHIBITOR” (Hangzhou Innogate Pharma Co., Ltd., priority 2023, published 2026) are described below.

One data set can be described thus: in vivo. Also on record: species or system SD rats. The conditions noted are these: male, SD, rat, po. The method, then:
Instrumentation: SCIEX Triple Quad 6500+ triple quadrupole liquid chromatography-mass spectrometry system (LC-MS/MS), operating software is Analyst 1.7.2 (Applied Biosystems, USA); ExionLC liquid chromatography system; Microsoft Excel was used for data calculation and processing. Pharmacokinetic parameters were calculated using the statistical moment method with WinNonlin 8.2 software. Key kinetic parameters included Tmax, T1/2, Cmax, AUC0-24 h etc. Column: Synergi 4 μm Fusion-RP 80 Å Luna C18 2 mm*50 mm, 4 μm; Column temperature: 40° C.; Mobile phase A: Water (0.1% formic acid); Mobile phase B: Acetonitrile; Flow rate: 0.8 mL/min; Gradient elution is adopted, the elution gradient is 0.10 min: 15% B; 1.60 min: 95% B; 1.90 min: 95% B; 1.91 min: 15% B; 2.20 min: 15% B. Injection volume: 1 μL.
Animals: 3 male SD rats with a weight range of 200-220 g were purchased and kept in the laboratory of the Experimental Animal Center for 3 days and then used. They were fasted for 12 hours predose and 4 hours after dosing. Drinking water was free during the test. After the rats were gavage, blood samples were taken according to the established time point.
Solvent: 0.4% ethanol+0.4% Tween80+99.2% (0.5% methylcellulose M450). Preparation of the solution for intragastric administration: Compounds were accurately weighed and added to the solvent. The mixture was then subjected to vortex mixing and sonication until a homogeneous suspension was achieved, thereby preparing medicinal solutions of the desired concentrations.
Compound samples: Typically, multiple structurally analogous compounds (with molecular weights differing by more than 2 units) were accurately weighed and administered together (cassette PK). This approach allows for the simultaneous screening of multiple compounds and comparison of their oral absorption rates. Single compound administration was also employed to study the pharmacokinetics of drug samples in rats.
After intragastric administration, blood was collected from the jugular vein at 0.25, 0.5, 1, 2, 4, 8, 10 and 24 hours. Transfer 20 μL of plasma sample (for blank samples and internal standard blank samples, add 20 μL of blank plasma) to a 1.5 mL centrifuge tube, add 200 μL of internal standard solution (50% methanol in acetonitrile (concentration 100 ng/mL)) (for Double blank samples, add 200 μL of 50% methanol in acetonitrile solution). Vortex the samples for 5 minutes, then centrifuge at 14000 rpm and 4° C. for 5 minutes. Transfer 80 μL and add to 80 μL of water, mix uniformly, and submit for LC-MS/MS analysis.
The compounds were accurately weighed to prepare different concentrations, and quantitative analysis on mass spectrometry was performed to establish a standard curve, and then the concentration of the above-mentioned compound in the plasma was tested to obtain its concentration at different time points. All measurement data were collected and processed by relevant software, and the statistical moment method was used to calculate the pharmacokinetic parameters (mainly including kinetic parameters Tmax, T1/2, Cmax, AUC0-24 h etc).

The next data set relates to Jurkat cells. The data set can be described thus: Inhibition of Jurkat cell proliferation (CellTiter-Glo, 72 hours). Format: cell-based. The note with it: Homo sapiens; Jurkat cells, 72 hours, CellTiter-Glo; read-out: Jurkat (IC50). As for the experimental part:
Select Jurkat cells in good growth condition and digest them with trypsin. Add fresh culture medium, mix thoroughly, and centrifuge at 1000 rpm for 5 minutes. Seed the cells into a 96-well plate at a density of 10,000 cells per well, and incubate overnight in a 37° C. incubator. On the following day, take out of the culture plate and treat the cells with compounds prepared in a five-fold serial dilution. Return the plate to the 37° C. incubator and continue incubation for 72 hours.
After incubation, bring out the cell culture plate and equilibrate it to room temperature. Add 100 μL of CellTiter-Glo reagent to each well, shake in the dark for 2 minutes, and incubate for 10 minutes. Measure the luminescence using an Enspire plate reader. Calculate the inhibition rate using the following formula: Inhibition rate (%)=(1−(RLU_compound−RLU_blank)/(RLU_DMSO−RLU_blank))×100%. Plot the dose-response curve and calculate the IC50 value using XLFit.
On the technique in general: ATP-based viability assays read luminescence as a measure of living cells.

The target of another data set is T1, hCTPS1 enzyme (Homo sapiens, UniProt P17812).
T1 sequence (P17812 1-591): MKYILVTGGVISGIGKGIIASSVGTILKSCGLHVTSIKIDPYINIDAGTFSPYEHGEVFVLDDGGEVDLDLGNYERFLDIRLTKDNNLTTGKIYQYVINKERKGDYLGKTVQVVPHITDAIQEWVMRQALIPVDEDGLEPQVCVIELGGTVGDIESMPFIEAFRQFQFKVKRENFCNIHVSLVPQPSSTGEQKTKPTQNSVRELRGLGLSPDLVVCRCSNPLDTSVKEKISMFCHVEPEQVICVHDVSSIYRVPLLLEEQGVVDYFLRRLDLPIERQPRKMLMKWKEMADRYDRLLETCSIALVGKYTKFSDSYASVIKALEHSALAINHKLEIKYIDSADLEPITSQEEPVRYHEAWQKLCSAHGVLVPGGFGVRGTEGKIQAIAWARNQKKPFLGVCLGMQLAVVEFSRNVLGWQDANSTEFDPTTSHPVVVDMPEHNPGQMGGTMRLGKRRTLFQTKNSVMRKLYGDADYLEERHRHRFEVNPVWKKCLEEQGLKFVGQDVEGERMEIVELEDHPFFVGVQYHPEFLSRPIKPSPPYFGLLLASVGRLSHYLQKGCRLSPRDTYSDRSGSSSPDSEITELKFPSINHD
The data set can be described thus: Inhibition of CTPS1 enzyme activity (ADP-Glo method). Format: biochemical. The conditions noted are these: hCTPS1, 90 min reaction at 25° C. As for the experimental part:
The enzyme activity of CTPS1 was tested using the ADP-Glo method. Compounds were serially diluted in DMSO with 3-fold gradients across ten concentrations. Transfer 0.1 μL of diluted compound to a 384-well plate, centrifuge at 1000 rpm for 1 min. Add 2.5 μL of hCTPS1 enzyme working solution, centrifuge at 1000 rpm for 1 min, and incubate at 25° C. for 10 min. Add 2.5 μL of ATP & UTP solution and incubate at 25° C. for 10 min. Add 5 μL of substrate solution to initiate the reaction and incubate at 25° C. for 90 min. Add 10 μL of ADP-Glo solution to the 384-well plate, centrifuge at 1000 rpm for 1 min, incubate at 25° C. for 40 min, add 20 μL of detection solution, centrifuge at 1000 rpm for 1 min, and incubate at 25° C. for 60 min. […] were read using a BMG microplate reader. Inhibition rate (%) was calculated as follows: Inhibition rate (%)=[(DMSO control well signal−Compound well signal)/(DMSO control well signal−Blank control well signal)]×100%. IC50 values for compounds were analyzed by nonlinear regression in XLFit 5.5.0 software using the formula: Y=Bottom+(Top−Bottom)/(1+10^((LogIC50−X)*HillSlope)) where Y is the inhibition rate and X is the log value of compound concentration.
A general note: In ADP-Glo the light output rises with the ADP produced.

The structures appear in SMILES notation. Some results are limits rather than exact numbers.

A word on the AUC(0-t): it is exposure summed from dosing to a finite time, without extrapolation to infinity. By Cmax is commonly meant the peak of the concentration-time curve. In general, Tmax refers to the time at which the peak concentration occurs. In general, half-life refers to how long it takes for the measured level to halve. As usually defined, the IC50 is the concentration that inhibits the measured activity by half.

Regarding `CCOc1cncc(-c2ccc(NC(=O)C3(c4ccnc(NS(=O)(=O)C5CC5)n4)CCC(=C(F)C4CCOCC4)CC3)nc2)n1` (stereo not drawn) [Compound 52], in “in vivo” (1.5 mg/kg), the AUC(0-t) worked out at 7.64 µg·h/mL, the Cmax stood at 1.21 µg/mL, the Tmax stood at 2 h and the half-life was 2.01 h. Moreover, in the data set with Jurkat cells, the IC50 is below 0.015 µM. Also, the IC50 on hCTPS1 enzyme is below 0.025 µM.

Take `CCOc1cncc(-c2ccc(NC(=O)C3(c4ccnc(NS(=O)(=O)C5CC5)n4)CCC(=CCC(C)(C)O)CC3)nc2)n1` (stereo not drawn) [Compound 58]: in the data set “in vivo” (3 mg/kg), the AUC(0-t) turned out to be 25.1 µg·h/mL, the Cmax came out at 4.54 µg/mL, the Tmax is 2.17 h and the half-life is 2.53 h. In the data set on Jurkat cells, the IC50 was below 0.015 µM. Further, on hCTPS1 enzyme, the IC50 is below 0.025 µM.

`C=CC(=O)N1CCC(C(=O)Nc2ccc(-c3cncc(OCC)n3)cn2)(c2ccnc(NS(=O)(=O)C3CC3)n2)CC1` [Compound 26]: in the data set “in vivo” (3 mg/kg), the AUC(0-t) is 0.288 µg·h/mL, the Cmax amounted to 0.118 µg/mL, the Tmax came out at 0.5 h and the half-life is 1.84 h. Further, in the data set with Jurkat cells, the IC50 was below 0.03 µM. In addition, the IC50 on hCTPS1 enzyme is below 0.05 µM.

On to `CCOc1cncc(-c2ccc(NC(=O)C3(c4ccnc(NS(=O)(=O)C5CC5)n4)CCC(=C(F)CO)CC3)nc2)n1` (stereo not drawn) [Compound 39], for which, in the data set “in vivo” (2 mg/kg), the AUC(0-t) was 1.47 µg·h/mL, the highest concentration (Cmax) was found to be 0.837 µg/mL, the Tmax was determined as 1.33 h and the half-life was 2.48 h. Also, the IC50 with Jurkat cells is below 0.015 µM. The same compound showed an IC50 against hCTPS1 enzyme below 0.025 µM.

With `CCOc1cncc(-c2ccc(NC(=O)C3(c4cncc(NS(=O)(=O)C5CC5)n4)CCC(=C(F)F)CC3)nc2)n1` (stereo not drawn) [Compound 68], in the data set “in vivo” (3 mg/kg), the AUC(0-t) worked out at 40.9 µg·h/mL, the Cmax worked out at 6.81 µg/mL, the Tmax is 2.17 h and the half-life is 1.83 h. In addition, the IC50 in the data set on Jurkat cells is below 0.015 µM. The IC50 at hCTPS1 enzyme is below 0.025 µM.

With `CCOc1cncc(-c2ccc(NC(=O)C3(c4ccnc(NS(=O)(=O)C5CC5)n4)CCC(=CF)CC3)nc2)n1` (stereo not drawn) [Compound 10], in the data set “in vivo” (3 mg/kg), the AUC(0-t) amounted to 87.2 µg·h/mL, the Cmax turned out to be 9.33 µg/mL, the time to peak (Tmax) is 3.33 h and the half-life is 4.95 h. The IC50 in the data set with Jurkat cells was below 0.03 µM. On hCTPS1 enzyme, this compound returned an IC50 below 0.025 µM.

For the compound `CCOc1cncc(-c2ccc(NC(=O)C3(c4ccnc(NS(=O)(=O)C5CC5)n4)CCC(=CC4CCOCC4)CC3)nc2)n1` (stereo not drawn) [Compound 32], in the data set “in vivo” (3 mg/kg), the AUC(0-t) worked out at 15.7 µg·h/mL, the Cmax stood at 4.02 µg/mL, the Tmax came out at 0.83 h and the half-life is 1.34 h. Moreover, the IC50 in the data set with Jurkat cells was below 0.015 µM. Moreover, the IC50 against hCTPS1 enzyme was below 0.025 µM.

Consider `CCOc1cncc(-c2ccc(NC(=O)C3(c4ccnc(NS(=O)(=O)C5CC5)n4)CCC(=C(F)C4COC4)CC3)nc2)n1` (stereo not drawn) [Compound 50], for which, in the data set “in vivo” (2 mg/kg), the AUC(0-t) is 2.16 µg·h/mL, the Cmax was 1.02 µg/mL, the Tmax worked out at 0.25 h and the half-life was 1.13 h. Moreover, the IC50 with Jurkat cells was below 0.015 µM. Moreover, on hCTPS1 enzyme, the IC50 was below 0.025 µM.

For `CCOc1cncc(-c2ccc(NC(=O)C3(c4ccnc(NS(=O)(=O)C5CC5)n4)CCC(=CCNC(C)=O)CC3)nc2)n1` (stereo not drawn) [Compound 22], in “in vivo” (3 mg/kg), the AUC(0-t) is 0.137 µg·h/mL, the Cmax was determined as 0.177 µg/mL, the Tmax is 0.25 h and the half-life is 1.64 h. In addition, the IC50 in the data set on Jurkat cells is below 0.03 µM. The compound also had an IC50 at hCTPS1 enzyme below 0.05 µM.

For `CCOc1cncc(-c2ccc(NC(=O)C3(c4ccnc(NS(=O)(=O)C5CC5)n4)CCC(=CCCO)CC3)nc2)n1` (stereo not drawn) [Compound 44], in the data set “in vivo” (2 mg/kg), the AUC(0-t) turned out to be 0.033 µg·h/mL, the Cmax was found to be 0.0105 µg/mL, the Tmax is 1.17 h and the half-life was 1.77 h. The IC50 in the data set with Jurkat cells is below 0.015 µM. Also, the IC50 against hCTPS1 enzyme is below 0.025 µM.

Take `CCOc1cncc(-c2ccc(NC(=O)C3(c4ccnc(NS(=O)(=O)C5CC5)n4)CCC(=CCN4CC(OC)C4)CC3)nc2)n1` (stereo not drawn) [Compound 28]: in “in vivo” (3 mg/kg), the AUC(0-t) is 0.0467 µg·h/mL, the Cmax amounted to 0.0331 µg/mL, the Tmax is 0.25 h and the half-life is 1.8 h. For the same compound, the IC50 in the data set with Jurkat cells was below 0.015 µM. On hCTPS1 enzyme, this compound registered an IC50 below 0.05 µM.
